The data set deals with CCRIS mutagenicity, Ames/micronucleus/aberration tests. The experiment in a line: CCRIS mutagenicity studies.
The mark [1] stands for this setting: Test System: AMES SALMONELLA TYPHIMURIUM, Strain/Indicator: TA97, Metabolic Activation: HAMSTER, LIVER, S-9, AROCLOR 1254 (10%), Method: PREINCUBATION
Setting [2] is: Test System: AMES SALMONELLA TYPHIMURIUM, Strain/Indicator: TA97, Metabolic Activation: NONE, Method: PREINCUBATION
[3] abbreviates: Test System: AMES SALMONELLA TYPHIMURIUM, Strain/Indicator: TA97, Metabolic Activation: RAT, LIVER, S-9, AROCLOR 1254 (10%), Method: PREINCUBATION
[4] abbreviates: Test System: AMES SALMONELLA TYPHIMURIUM, Strain/Indicator: TA98, Metabolic Activation: RAT, LIVER, S-9, PCB, Method: PREINCUBATION
The mark [5] stands for this setting: Test System: AMES SALMONELLA TYPHIMURIUM, Strain/Indicator: TA100, Metabolic Activation: NONE, Method: PREINCUBATION
[6] abbreviates: Test System: AMES SALMONELLA TYPHIMURIUM, Strain/Indicator: TA100, Metabolic Activation: RAT, LIVER, S-9, PCB, Method: PREINCUBATION
The mark [7] stands for this setting: Test System: AMES SALMONELLA TYPHIMURIUM, Strain/Indicator: TA1535, Metabolic Activation: NONE, Method: PREINCUBATION
[8] abbreviates: Test System: AMES SALMONELLA TYPHIMURIUM, Strain/Indicator: TA98, Metabolic Activation: NONE, Method: PREINCUBATION

Structures are written as SMILES. Active and inactive are the calls of the source. The rule behind the calls is not given here.

As to `C1N2CN3CN1CN(C2)C3`, the mutagenic call was “inactive; negative” (End Point: In vitro chromosomal aberrations, Test System: Chinese hamster lung (CHL/IU) cells, Metabolic Activation: Rat, Liver, S9, Phenobarbital and 5,6-benzoflavone); “inactive; negative” (Test System: AMES SALMONELLA TYPHIMURIUM, Strain/Indicator: TA97, Metabolic Activation: HAMSTER, LIVER, S-9, AROCLOR 1254 (5 OR 30%), Method: PREINCUBATION); “inactive; negative” under setting [1]; “inactive; negative” under setting [2]; “inactive; negative” under setting [3]; “inactive; negative” (Test System: AMES SALMONELLA TYPHIMURIUM, Strain/Indicator: TA97, Metabolic Activation: RAT, LIVER, S-9, AROCLOR 1254 (30%), Method: PREINCUBATION). In addition, the mutagenic call is, setting by setting: (Test System: AMES SALMONELLA TYPHIMURIUM, Strain/Indicator: TA98, Metabolic Activation: HAMSTER, LIVER, S-9, AROCLOR 1254 (10 OR 30%), Method: PREINCUBATION) “inactive; negative”; (Test System: AMES SALMONELLA TYPHIMURIUM, Strain/Indicator: TA98, Metabolic Activation: RAT, LIVER, S-9, AROCLOR 1254 (10 OR 30%), Method: PREINCUBATION) “inactive; negative”; (Test System: AMES SALMONELLA TYPHIMURIUM, Strain/Indicator: TA98, Metabolic Activation: RAT, LIVER, S-9, KC 500, Method: PREINCUBATION) “active; positive”; under setting [4], “inactive; negative”; (Test System: AMES SALMONELLA TYPHIMURIUM, Strain/Indicator: TA100, Metabolic Activation: HAMSTER, LIVER, S-9, AROCLOR 1254 (10 OR 30%), Method: PREINCUBATION) “inactive; negative”; under setting [5], “inactive; negative”. Moreover, the mutagenic call is “inactive; negative” (Test System: AMES SALMONELLA TYPHIMURIUM, Strain/Indicator: TA100, Metabolic Activation: RAT, LIVER, S-9, AROCLOR 1254 (10 OR 30%), Method: PREINCUBATION); “active; positive” (Test System: AMES SALMONELLA TYPHIMURIUM, Strain/Indicator: TA100, Metabolic Activation: RAT, LIVER, S-9, KC 500, Method: PREINCUBATION); “inactive; negative” under setting [6]; “inactive; negative” (Test System: AMES SALMONELLA TYPHIMURIUM, Strain/Indicator: TA1535, Metabolic Activation: HAMSTER, LIVER, S-9, AROCLOR 1254 (10 OR 30%), Method: PREINCUBATION); “inactive; negative” under setting [7]; “inactive; negative” (Test System: AMES SALMONELLA TYPHIMURIUM, Strain/Indicator: TA1535, Metabolic Activation: RAT, LIVER, S-9, AROCLOR 1254 (10 OR 30%), Method: PREINCUBATION). In addition, the mutagenic call reads like this: (Test System: AMES SALMONELLA TYPHIMURIUM, Strain/Indicator: TA1535, Metabolic Activation: RAT, LIVER, S-9, KC 500, Method: PREINCUBATION) “inactive; negative”; (Test System: AMES SALMONELLA TYPHIMURIUM, Strain/Indicator: TA1537, Metabolic Activation: HAMSTER, LIVER, S-9, AROCLOR 1254 (10%), Method: PREINCUBATION) “inactive; negative”; (Test System: AMES SALMONELLA TYPHIMURIUM, Strain/Indicator: TA1537, Metabolic Activation: NONE, Method: PREINCUBATION) “inactive; negative”; (Test System: AMES SALMONELLA TYPHIMURIUM, Strain/Indicator: TA1537, Metabolic Activation: RAT, LIVER, S-9, AROCLOR 1254 (10%), Method: PREINCUBATION) “inactive; negative”; (Test System: AMES SALMONELLA TYPHIMURIUM, Strain/Indicator: TA1537, Metabolic Activation: RAT, LIVER, S-9, KC 500, Method: PREINCUBATION) “inactive; negative”; (Test System: AMES SALMONELLA TYPHIMURIUM, Strain/Indicator: TA1538, Metabolic Activation: HAMSTER, LIVER, S-9, AROCLOR 1254 (10 OR 30%), Method: PREINCUBATION) “inactive; negative”. The mutagenic call (Test System: AMES SALMONELLA TYPHIMURIUM, Strain/Indicator: TA1538, Metabolic Activation: NONE, Method: PREINCUBATION) was “inactive; negative”; the mutagenic call (Test System: AMES SALMONELLA TYPHIMURIUM, Strain/Indicator: TA1538, Metabolic Activation: RAT, LIVER, S-9, AROCLOR 1254 (10 OR 30%), Method: PREINCUBATION) is “inactive; negative”; the mutagenic call (Test System: AMES SALMONELLA TYPHIMURIUM, Strain/Indicator: TA1538, Metabolic Activation: RAT, LIVER, S-9, KC 500, Method: PREINCUBATION) was “inactive; negative”; the mutagenic call (Test System: Ames Salmonella typhimurium, Strain/Indicator: TA98, Metabolic Activation: None, Method: Preincubation) was “inactive; negative”; the mutagenic call (Test System: Ames Salmonella typhimurium, Strain/Indicator: TA98, Metabolic Activation: Rat, Liver, S9, Sodium phenobarbital and 5,6-benzoflavone (10%), Method: Preincubation) is “inactive; negative”; the mutagenic call (Test System: Ames Salmonella typhimurium, Strain/Indicator: TA100, Metabolic Activation: None, Method: Preincubation) is “inactive; negative”. The mutagenic call is “inactive; negative” (Test System: Ames Salmonella typhimurium, Strain/Indicator: TA100, Metabolic Activation: Rat, Liver, S9, Sodium phenobarbital and 5,6-benzoflavone (10%), Method: Preincubation); “inactive; negative” (Test System: Ames Salmonella typhimurium, Strain/Indicator: TA1535, Metabolic Activation: None, Method: Preincubation); “inactive; negative” (Test System: Ames Salmonella typhimurium, Strain/Indicator: TA1535, Metabolic Activation: Rat, Liver, S9, Sodium phenobarbital and 5,6-benzoflavone (10%), Method: Preincubation); “inactive; negative” (Test System: Ames Salmonella typhimurium, Strain/Indicator: TA1537, Metabolic Activation: None, Method: Preincubation); “inactive; negative” (Test System: Ames Salmonella typhimurium, Strain/Indicator: TA1537, Metabolic Activation: Rat, Liver, S9, Sodium phenobarbital and 5,6-benzoflavone (10%), Method: Preincubation); “inactive; negative” (Test System: E. COLI, Strain/Indicator: WP2 UVRA, Metabolic Activation: NONE, Method: PREINCUBATION). The mutagenic call (Test System: E. COLI, Strain/Indicator: WP2 UVRA, Metabolic Activation: RAT, LIVER, S-9, KC 500, Method: PREINCUBATION) is “inactive; negative”; the mutagenic call (Test System: E. coli, Strain/Indicator: WP2uvrA/pKM101, Metabolic Activation: None, Method: Preincubation) is “inactive; negative”; the mutagenic call (Test System: E. coli, Strain/Indicator: WP2uvrA/pKM101, Metabolic Activation: Rat, Liver, S9, Sodium phenobarbital and 5,6-benzoflavone (10%), Method: Preincubation) was “inactive; negative”.

For the compound `c1ccc2n[nH]nc2c1`, the mutagenic call is, setting by setting: under setting [1], “inactive; negative”; under setting [2], “inactive; negative”; under setting [3], “inactive; negative”; (Test System: AMES SALMONELLA TYPHIMURIUM, Strain/Indicator: TA98, Metabolic Activation: HAMSTER, LIVER, S-9, AROCLOR 1254 (10%), Method: PREINCUBATION) “inactive; negative”; under setting [8], “inactive; negative”; (Test System: AMES SALMONELLA TYPHIMURIUM, Strain/Indicator: TA98, Metabolic Activation: RAT, LIVER, S-9, AROCLOR 1254 (10%), Method: PREINCUBATION) “inactive; negative”. For the same compound, the mutagenic call by setting is: (Test System: AMES SALMONELLA TYPHIMURIUM, Strain/Indicator: TA100, Metabolic Activation: HAMSTER, LIVER, S-9, AROCLOR 1254 (10%), Method: PREINCUBATION) “inactive; negative”; under setting [5], “inactive; negative”; (Test System: AMES SALMONELLA TYPHIMURIUM, Strain/Indicator: TA100, Metabolic Activation: RAT, LIVER, S-9, AROCLOR 1254 (10%), Method: PREINCUBATION) “inactive; negative”; (Test System: AMES SALMONELLA TYPHIMURIUM, Strain/Indicator: TA1535, Metabolic Activation: HAMSTER, LIVER, S-9, AROCLOR 1254 (10%), Method: PREINCUBATION) “active; positive”; under setting [7], “inactive; negative”; (Test System: AMES SALMONELLA TYPHIMURIUM, Strain/Indicator: TA1535, Metabolic Activation: RAT, LIVER, S-9, AROCLOR 1254 (10%), Method: PREINCUBATION) “active; positive”. Further, the mutagenic call (Test System: E. COLI, Strain/Indicator: WP2 UVRA, Metabolic Activation: MOUSE, LIVER, S-9, AROCLOR 1254, Method: STANDARD PLATE) is “inactive; negative”.

For `COCc1c(O)cc2c(c1O)C(=O)c1ccccc1C2=O`, the mutagenic call is “active; positive” under setting [8], “active; positive” under setting [4], “active; positive” under setting [5] and “active; positive” under setting [6].

The values above are taken from PubChem BioAssay AID1259407 (Chemical Carcinogenesis Research Information System (CCRIS), 2018).
